We go through 2 molecules from article PMC12579162, “Synthesized Depside Molecules Suppress the Progression of Colorectal Cancer by Binding VDAC1/PHB/MMP9 Being at the Crossroads of Stemness, Motility, Apoptosis, and Metabolism” (MedComm, 2025).

In one assay the test system is SW620 cells. Put plainly: MTT cell viability, SW620. Format: cell-based. The conditions noted are these: Homo sapiens, SW-620; 48 h, MTT assay. Here is the method:
(§1) Cells (3 × 10^3 cells/well) were seeded on a 96‐well plate, grown overnight, and then treated with compounds at indicated concentrations for 48 h. After incubation with MTT for 4 h at 37°C, cells were lysed with 150 µL of DMSO (Sigma–Aldrich, St. Louis, USA). Absorbance was measured at 570 nm on a microplate reader with the Gen5 software (v.2.03.1; BioTek, Winooski, VT, USA).

A further assay deals with HT29 cells. Put plainly: MTT cell viability, HT29. Format: cell-based. The settings on record: Homo sapiens, HT-29; 48 h, MTT assay. As for the experimental part: as §1
(In general: Tetrazolium assays rely on reduction of a dye to a coloured formazan, in cell work by metabolically active cells.)

The subject of another assay is CT26 cells. Put plainly: MTT cell viability, CT26. The settings on record: Mus musculus, 48 h, MTT assay. Format: cell-based. Here is the method:
as §1

The subject of a further assay is CaCo2 cells. Put plainly: MTT cell viability, CaCo2. Format: cell-based. The settings on record: Homo sapiens, Caco-2; 48 h, MTT assay. Here is the method: as §1
In the next assay the test system is MCF10A cells. Put plainly: Spheroid formation assay, MCF10A. The settings on record: noncancerous MCF10A, 10–14 days. Format: cell-based, human. Here is the method: (§2) Monolayer cells were separated into single‐cell suspensions at around 70% confluence using a solution of trypsin. After that, the cells were added to N2‐supplemented DMEM/F12 that contained human basal fibroblast growth factor and human recombinant epidermal growth factor. Cells seeded at a density of 5 × 10^3 cells/well in ultra‐low attachment 24‐well plates (Corning Inc., Corning, NY, USA). After 10–14 days of culture, spheres were quantitated by inverted phase contrast microscopy. The relative sphere formation ability was calculated through the IMT iSolution software (IMT iSolution Inc., Northampton, NJ, USA) measuring the pixel intensity of the sphere area randomly in each plate.

A further assay concerns DLD1 cells. Put plainly: MTT cell viability, DLD1. Format: cell-based. The settings on record: Homo sapiens, DLD-1; 48 h, MTT assay. As for the experimental part: as §1
Assay [1] relates to CaCo2, DLD1, HT29, HCT116, and SW620 cells. Put plainly: Cell cycle analysis by flow cytometry. Format: cell-based, human. The settings on record: 10 µM, 48 h. As for the experimental part: Cells were cultured in a six‐well plate at the density of 2 × 10^5 cells/well until adherence. Cells were treated with DMSO or compound for 48 h. Apoptosis or cell cycle experiments were then performed. For apoptosis analysis, cells were harvested and washed with PBS, resuspended in 100 µL of 1× binding buffer followed by staining with 4 µL of Annexin V–FITC (BD, Biosciences, San Jose, CA, USA), and 8 µL of 50 µg/mL propidium iodide (PI; BD Biosciences, San Jose, CA, USA) for 30 min in the dark. For cell cycle analysis, cells were washed with FACS washing buffer, incubated with trypsin solution, followed by RNase A for 10 min at room temperature. Cells were centrifuged and pellets were collected and stained with 100 µL of 4 mg/mL PI (Sigma–Aldrich) for 2 h in the dark at 4°C. Cells were detected by flow cytometry on a CytoFLEX instrument (Beckman Coulter Life Sciences, Indianapolis, IN, USA).
(A flow cytometer gives signals particle by particle.)

In assay [2] the test system is CSC221, DLD1, CaCo2, HT29, HCT116, and SW620 cells. Nature of the assay: Seahorse XF Cell Mito Stress Test. Format: cell-based, human. The conditions noted are these: 5 µM, 48 h. As for the experimental part: Seahorse XF96 extracellular flux analyzer (Agilent, Santa Clara, CA, USA) was used for glycolytic rate and cell mito stress test assays. Cells were seeded at 1 × 10^4 cells/well, incubated overnight in culture medium (2% FBS), and then treated with DMSO or compound for 48 h. The plated cells were twice washed and loaded (180 µL) with assay media enhanced with glutamine, sodium pyruvate, and glucose on the day of analysis. Before analysis, the cells were incubated for 1 h at 37°C in a non‐CO2 incubator. Then, cell mito stress, mito tox, or glycolytic rate assay was tested. Agilent Seahorse XF Mito Stress Test Kit was utilized in accordance with Agilent Seahorse's standard methodology. This test examines the OCR of cells directly, which provides important information on mitochondrial function. First, 1 µM oligomycin (inhibits ATP synthase) was injected. The second injection was FCCP (1 µM), an uncoupling agent that compresses the proton gradient and disturbs the mitochondrial membrane potential. Last injection with 0.5 µM Rotenone (Rot; a complex I inhibitor) + antimycin A (AA; a complex III inhibitor) was loaded for OCR analysis. Agilent Seahorse XF Glycolytic Rate Assay was utilized in accordance with Agilent Seahorse's standard methodology. […] The results were analyzed using the Wave software (Agilent).

Assay [3] relates to CRC cells (CaCo2, DLD1, HCT116, HT29, and SW620). Put plainly: Spheroid formation assay, CRC cell lines. Format: cell-based, human. The conditions noted are these: 2.5 and 5 µM, 10–14 days. Here is the method: as §2
The subject of the next assay is HEK293T cells. Put plainly: MTT cell viability, HEK293T. The conditions noted are these: Homo sapiens, HEK-293T; 48 h, MTT assay. Format: cell-based. Here is the method:
as §1

The subject of assay [4] is MMP9 promoter in HEK293T cells. Put plainly: MMP9 promoter reporter assay. Format: cell-based, human. The settings on record: 2.5 and 5 µM, 24 h. As for the experimental part: HEK293T was plated in a 24-well plate, left to attach, and then transfected with 100 ng of AP-1, STAT, Gli, CSL, TOPFLASH (with 100 ng β-catenin), NF-kB, Hes-1 and MMP9 reporter plasmids with 2 ng of Renilla-luc (pRL-TK) plasmid. MMP9 reporter assays were tested by stimulating Gli1-Flag, Gli2-Flag, ΔEN1-Myc, and MYC-flag plasmids. Transfections were performed using the X-treme GENE 9 DNA transfection reagent (Roche, Werk Penzberg, Germany). After 24 hours transfection, cells were treated with compounds or DMSO and incubated for 24 h at 37 °C under 5% CO2. The Dual-Luciferase reporter assay system (Promega, Madison, WI, USA) was used.

As to `COCCOc1c(C)c(OC(=O)c2c(C)cc(OC)c(C)c2OC)cc(C)c1C(=O)OC` [SB4, 4-(Methoxycarbonyl)-3-(2-methoxyethoxy)-2,5-dimethylphenyl 2,4-dimethoxy-3,6-dimethylbenzoate], the IC50 with SW620 cells amounted to 5.33 µM; in the assay with HT29 cells it was 3.95 µM; in the assay with CT26 cells, 5.33 µM; in the assay with CaCo2 cells, 8.74 µM; in the assay with DLD1 cells it was 4.08 µM; with HEK293T cells it was 19 µM. The figures for the spheroid formation result (with MCF10A cells; in [3]) were “did not change the inhibition or induction of spheroid formation in a statistically significant way” and “suppressed spheroid formation”, respectively. In addition, the cell-cycle distribution entry in [1] was “induced Sub G1 and G2/M populations while G1 population decreased”. Besides, the “oxygen consumption rate (OCR)” value in assay [2] is on record as “dramatically suppresses the oxygen consumption rate (OCR)”. Further, in [4], the MMP9 promoter activity entry is reported as “downregulated”.

With `COCCCOc1c(C)c(OC(=O)c2c(C)cc(OC)c(C)c2OC)cc(C)c1C(=O)OC` [SB5, 4-(Methoxycarbonyl)-3-(3-methoxypropoxy)-2,5-dimethylphenyl 2,4-dimethoxy-3,6-dimethylbenzoate], the IC50 turned out to be 2.27 µM with SW620 cells; 7.47 µM with HT29 cells; 2.27 µM in the assay with CT26 cells; 2.77 µM in the assay with CaCo2 cells; 57.8 µM in the assay with DLD1 cells; 63.2 µM with HEK293T cells. Further, the values for the spheroid formation result (with MCF10A cells; in [3]) were “did not change the inhibition or induction of spheroid formation in a statistically significant way” and “suppressed spheroid formation”, respectively. Moreover, the cell-cycle distribution entry in assay [1] is “induced Sub G1 and G2/M populations while G1 population decreased”. Further, the “oxygen consumption rate (OCR)” value in assay [2] is reported as “dramatically suppresses the oxygen consumption rate (OCR)”. For the same molecule, in assay [4], the MMP9 promoter activity result is “downregulated”.

By IC50 is commonly meant the point on the concentration scale where inhibition reaches its midpoint. The low end stands for greater potency in that assay, the high end for weaker potency in that assay.
